Source: the supplement of paper PMC10307832

What was measured:
Assay in all cases: relative viability (nuclei count vs DMSO), 5 days (fraction); higher = more cells survive
[1] = compound: CCn1c(-c2nonc2N)nc2c(C#CC(C)(C)O)ncc(OC[C@H]3CCCNC3)c21 + CC(=O)c1c(C)c2cnc(Nc3ccc(N4CCNCC4)cn3)nc2n(C2CCCC2)c1=O [Palbociclib] (partner 0.5 µM)
Outline: (§1)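 Values are medians from duplicate plates. Each reflects relative viability, defined as the nuclei count of treated wells over that of vehicle wells. Lung cancer cell lines in 1536-well plates were pin-tool dosed one day after seeding with one drug alone or with a fixed anchor-drug dose plus five library-drug doses (not always all listed) in √10 steps, then fixed, stained and imaged at 4× after 5 days.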

[2] = compound: CCn1c(-c2nonc2N)nc2c(C#CC(C)(C)O)ncc(OC[C@H]3CCCNC3)c21 + CC1(C)CCC(c2ccc(Cl)cc2)=C(CN2CCN(c3ccc(C(=O)NS(=O)(=O)c4ccc(N[C@H](CCN5CCOCC5)CSc5ccccc5)c(S(=O)(=O)C(F)(F)F)c4)cc3)CC2)C1 [Navitoclax] (partner 0.5 µM)
Outline: as §1

BAM7 + Tozasertib = compound: CCOC1=CC=CC=C1N=NC2=C(NN(C2=O)C3=NC(=CS3)C4=CC=CC=C4)C [BAM7] + Cc1cc(Nc2cc(N3CCN(C)CC3)nc(Sc3ccc(NC(=O)C4CC4)cc3)n2)n[nH]1 [Tozasertib] (partner 0.1 µM)
Outline: as §1

[3] = compound: CCn1c(-c2nonc2N)nc2c(C#CC(C)(C)O)ncc(OC[C@H]3CCCNC3)c21 + C[C@]1(O)C[C@@H](c2nc(-c3ccc4ccc(-c5ccccc5)nc4c3)c3c(N)nccn32)C1 [Linsitinib] (partner 1 µM)
Outline: as §1

Cell Line	relative viability ([1]; first compound 0.01 µM)	relative viability ([1]; first compound 0.03162 µM)	relative viability ([1]; first compound 0.1 µM)	relative viability ([1]; first compound 0.3162 µM)	relative viability ([1]; first compound 1 µM)	relative viability ([2]; first compound 0.01 µM)	relative viability ([2]; first compound 0.03162 µM)	relative viability ([2]; first compound 0.1 µM)	relative viability ([2]; first compound 0.3162 µM)	relative viability ([2]; first compound 1 µM)	relative viability (BAM7 + Tozasertib; first compound 0.5 µM)	relative viability (BAM7 + Tozasertib; first compound 5 µM)	relative viability (BAM7 + Tozasertib; first compound 15.81 µM)	relative viability (BAM7 + Tozasertib; first compound 50 µM)	relative viability ([3]; first compound 0.01 µM)	relative viability ([3]; first compound 0.03162 µM)	relative viability ([3]; first compound 0.1 µM)	relative viability ([3]; first compound 0.3162 µM)	relative viability ([3]; first compound 1 µM)
NCI-H1975	0.484	0.599	0.51	0.544	0.305	1.03	1.3	1.12	1.14	1.03	0.41	0.512	0.465	0.512	0.887	1.02	0.913	0.791	0.86
CAL-12T	0.39	0.448	0.468	0.462	0.553	1.24	1.22	1.3	1.33	1.06	0.311	0.257	0.236	0.24	0.878	0.784	0.819	0.802	0.715
NCI-H1623	–	–	–	–	–	–	–	–	–	–	0.389	0.367	0.357	0.371	–	–	–	–	–
HCC-44	0.973	0.939	0.964	0.813	1.04	0.938	0.956	0.944	0.851	0.981	0.94	0.711	0.785	0.878	0.608	0.692	0.636	0.652	0.71
EKVX	0.411	0.408	0.378	0.374	0.419	0.882	0.858	0.927	0.908	0.853	0.424	0.36	0.183	0.333	0.997	0.952	1.03	0.954	0.976
NCI-H1651	0.518	0.528	0.505	0.49	0.56	1.06	1.02	1.01	1.14	1	0.674	0.758	0.637	0.638	0.926	0.941	0.919	0.871	0.958
NCI-H1944	0.359	0.353	0.348	0.314	0.325	1.11	0.954	1.13	1.05	1.08	0.25	0.253	0.257	0.257	1.15	1.17	1.21	1.21	1.21
NCI-H1703	–	–	–	–	–	1.12	0.959	0.857	1.04	0.505	–	–	–	–	0.939	0.836	0.594	0.449	0.358
Calu-6	–	–	–	–	–	0.75	0.797	0.827	0.86	0.983	–	–	–	–	0.88	1.06	0.842	0.952	0.935
EBC-1	–	–	–	–	–	0.393	0.433	0.358	0.235	0.188	–	–	–	–	0.947	0.776	0.837	0.732	0.632
SW 1573	0.334	0.402	0.326	0.241	0.215	0.895	0.859	0.934	0.943	0.735	0.213	0.174	0.165	0.191	0.827	0.793	0.81	0.7	0.772
A-427	0.426	0.508	0.533	0.515	0.559	0.941	0.955	0.913	0.973	1.02	0.202	0.199	0.216	0.202	1.13	1.05	1.15	1.1	1.13
NCI-H2347	0.394	0.445	0.492	0.422	0.435	0.849	0.751	0.813	0.796	0.882	0.75	0.426	–	0.525	1.05	0.983	0.958	0.904	0.991
NCI-H1355	0.408	0.367	0.406	0.382	0.382	1	0.819	1.02	0.882	0.969	0.515	0.461	0.361	0.459	0.899	0.804	0.877	0.685	0.869
NCI-H358	0.139	0.147	0.122	0.151	0.131	–	–	–	–	–	0.136	0.0963	0.0944	0.108	0.812	0.877	0.667	0.631	0.562
PC-3 [JPC-3]	0.529	–	0.556	0.557	0.531	0.806	0.788	0.859	0.837	0.809	0.776	0.7	0.72	0.735	0.959	0.933	0.98	0.927	0.932
NCI-H2228	0.686	0.752	0.821	0.574	0.467	0.728	0.673	0.791	0.634	0.787	0.239	0.23	0.208	0.286	0.682	0.65	0.645	0.585	0.475
HOP-62	0.414	0.436	0.308	0.383	0.395	0.997	0.942	1.04	0.951	1.05	0.417	0.413	0.337	0.308	1.07	0.942	1.03	0.921	0.878
HARA	0.303	0.344	0.269	0.268	0.209	1.09	1.2	1.14	1.16	1.14	0.117	0.116	0.093	0.0898	0.861	0.961	0.973	0.947	1.11
